From patent US6730687B1, “Substituted benzylthiazolidine-2, 4-dione derivatives” (Kyorin Pharmaceutical Co., Ltd., priority 1999, dated 2004)
Where two headings read alike, the source gives them in different places.

Key:
[1] = target: T1, ligand-binding domain of human type PPARα (Homo sapiens, UniProt Q07869); assay: Test of transactivation on peroxisome proliferator-activated receptor (CHO cells, reporter plasmid), PPARα
T1 sequence (Q07869 239-466 limits assumed): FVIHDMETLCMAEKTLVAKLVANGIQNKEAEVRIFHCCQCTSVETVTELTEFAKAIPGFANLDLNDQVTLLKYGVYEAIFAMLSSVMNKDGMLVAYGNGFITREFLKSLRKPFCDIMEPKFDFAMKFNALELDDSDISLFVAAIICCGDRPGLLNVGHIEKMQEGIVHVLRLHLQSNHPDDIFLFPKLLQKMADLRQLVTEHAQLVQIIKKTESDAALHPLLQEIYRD
Description: (§1) After 24 hours, CAT activity and β-galactosidase activity were measured.

[2] = target: T2, ligand-binding domain of human type PPARγ (Homo sapiens, UniProt P37231); assay: Test of transactivation on peroxisome proliferator-activated receptor (CHO cells, reporter plasmid), PPARγ
T2 sequence (P37231 238-503 limits assumed): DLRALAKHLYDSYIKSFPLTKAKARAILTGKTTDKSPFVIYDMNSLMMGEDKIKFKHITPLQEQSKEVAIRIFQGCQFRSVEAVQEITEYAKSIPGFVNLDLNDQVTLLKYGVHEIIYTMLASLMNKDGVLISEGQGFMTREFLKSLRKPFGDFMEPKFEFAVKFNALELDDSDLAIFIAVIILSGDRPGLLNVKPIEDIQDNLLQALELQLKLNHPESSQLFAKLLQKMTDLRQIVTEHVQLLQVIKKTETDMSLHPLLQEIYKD
Description: as §1

[3] = read-out: Transactivation action PPARα EC50, CHO cells cotransfected with receptor and reporter plasmids, 24 hours, CAT activity, β-galactosidase internal standard

Row | SMILES | EC50 [1, 3] [nM] | EC50 ([2]; read-out: Transactivation action PPARγ EC50, CHO cells cotransfected with receptor and reporter plasmids, 24 hours, CAT activity, β-galactosidase internal standard) [nM] | EC50 [2] [nM] | melting point [°C] | EC50 [1] [nM]
1 | CCCCC/C=C\C/C=C\C=C\[C@@H](O)C/C=C\CCCC(=O)O [(8S)-HETE, reference compound] | 1300 |  |  |  | 
2 | COc1ccc(CC2SC(=O)NC2=O)cc1CC(=O)Nc1ccc(C(F)(F)F)cc1 (stereo not shown) [Example 6, N-[4-(Trifloromethyl)phenyl]-2-[5-[(2,4-dioxothiazolidin-5-yl)methyl]2-methoxyphenyl]acetamide] | 600 | 3300 |  |  | 
3 | COc1ccc(CC2SC(=O)NC2=O)cc1NC(=O)Nc1ccc(C(F)(F)F)cc1 (stereo not shown) [Example 11, 5-[[4-Methoxy-3-[3-[4-(trifluoromethyl)phenyl]ureido]phenyl]methyl]thiazolidinex-2,4-dione] |  |  | 430 | 202 to 204 | 550
4 | COc1ccc(CC2SC(=O)NC2=O)cc1NC(=O)Cc1ccc(C(F)(F)F)cc1 (stereo not shown) [Example 15, N-[2-Methoxy-5-[(2,4-dioxothiazolidin-5-yl)methyl]phenyl]-2-[4-(trifluoromethyl)phenyl]acetamide] |  |  | 1100 | 147 to 149 | 860
5 | COc1ccc(CC2SC(=O)NC2=O)cc1C(=O)CCc1ccc(C(F)(F)F)cc1 (stereo not shown) [Example 22, 5-[[3-[3-[4-(Trifluoromethyl)phenyl]propanoyl]-4-methoxynhenyl]methyl]thiazolidine-2,4-dione] |  |  | 400 | 103 to 104.5 | 800
6 | COc1ccc(CC2SC(=O)NC2=O)cc1CC(=O)Nc1ccc(Oc2ccccc2)cc1 (stereo not shown) [Example 23, N-[4-(Phenoxy)phenyl]-2-[5-[(2,4-dioxothiazolidin-5-yl)methyl]-2-methoxyphenyl]acetamide] |  |  |  | 82 to 84 | 
